Measured values taken from the SangsterLogP compilation.

test: method code SF-AS, from DOI: 10.1016/j.ejmech.2011.01.053, PMID: 21334792; settings: pH 7.4

**Q.** Which logD does the source give for CCCCCCC(=O)ON=C1c2ccccc2-c2c1c(C1C=CN=C1)nc1ccc(Br)cc21 (stereo not drawn) here?
**A.** 1.51

**Q.** Which logD does the source give for CC(C)(C)C(=O)NC(C(=O)ON=C1c2ccccc2-c2c1c(N1CCN(c3ccccn3)CC1)nc1ccc(Br)cc21)C(C)(C)C (stereo not drawn) here?
**A.** 1.5

**Q.** For CC(=O)ON=C1c2ccccc2-c2c1c(C1C=CN=C1)nc1ccc(Br)cc21 (stereo not drawn), which logD is on record?
**A.** 1.11

**Q.** Which logD does the source give for CC1(O)c2ccccc2-c2c1c(-n1ccnc1)nc1ccc(Br)cc21 (stereo not drawn) here?
**A.** 1.73

**Q.** With ON=C1c2ccccc2-c2c1c(C1C=CN=C1)nc1ccc(Br)cc21 (stereo not drawn) as the compound, how does the logD read?
**A.** 0.23

**Q.** With O=C(C=Cc1ccco1)ON=C1C2=C(c3ccccc31)c1c(Br)cccc1NC2N1CCN(c2ccccn2)CC1 (stereo not drawn) as the compound, how does the logD read?
**A.** 1.43

**Q.** With O=C(CCCCBr)ON=C1c2ccccc2-c2c1c(N1CCN(c3ccccn3)CC1)nc1ccc(Br)cc21 as the compound, how does the logD read?
**A.** 1.47

**Q.** With CC(=O)NCC(=O)ON=C1c2ccccc2-c2c1c(N1CCN(c3ccccn3)CC1)nc1ccc(Br)cc21 as the compound, how does the logD read?
**A.** 1.18

**Q.** For CCCCC(=O)ON=C1c2ccccc2-c2c1c(C1C=CN=C1)nc1ccc(Br)cc21 (stereo not drawn), which logD is on record?
**A.** 1.64

**Q.** With CCCC(=O)O/N=C1\c2ccccc2-c2c1c(-n1ccnc1)nc1ccc(Br)cc21 as the compound, how does the logD read?
**A.** 1.17

**Q.** With CC(C)(C)OC(=O)NCC(=O)ON=C1c2ccccc2-c2c1c(N1CCN(c3ccccn3)CC1)nc1cccc(Br)c21 as the compound, how does the logD read?
**A.** 0.7

**Q.** For CCC(=O)ON=C1c2ccccc2-c2c1c(N1CCN(c3ccccn3)CC1)nc1ccc(Br)cc21, which logD is on record?
**A.** 2.65

**Q.** For CC(C)(C)OC(=O)NC(Cc1cccc(F)c1)ON=C1c2ccccc2-c2c1c(N1CCN(c3ccccn3)CC1)nc1ccc(Br)cc21 (stereo not drawn), which logD is on record?
**A.** 1.14

**Q.** Which logD does the source give for CN(C)C(=O)ON=C1c2ccccc2-c2c1c(N1CCN(c3ccccn3)CC1)nc1ccc(Br)cc21 here?
**A.** 2.34

**Q.** For CCCCCC(=O)ON=C1c2ccccc2-c2c1c(C1C=CN=C1)nc1ccc(Br)cc21 (stereo not drawn), which logD is on record?
**A.** 2.11

**Q.** For CCCCCC(=O)ON=C1c2ccccc2-c2c1c(N1CCN(c3ccc[nH]3)CC1)nc1ccc(Br)cc21, which logD is on record?
**A.** 2.06

**Q.** For CC1(OC(=O)CC(F)(F)F)c2ccccc2-c2c1c(-n1ccnc1)nc1ccc(Br)cc21 (stereo not drawn), which logD is on record?
**A.** 1.83

**Q.** Which logD does the source give for CC(C)(C)OC(=O)N1CCCC1C(=O)O/N=C1\c2ccccc2-c2c1c(-n1ccnc1)nc1ccc(Br)cc21 (stereo not drawn) here?
**A.** 1.28
